Read-outs that look alike come from different tables or passages of the source.
Tests used:
[1] = system: Key Grass and Sedge Weeds as well as Grass Crops; assay: Post-emergent Test II herbicidal activity (Table 6); type: in vivo; settings: post-emergence, 336 h; for pest or weed control at 70 g/ha: 70 g ai/ha; for pest or weed control at 140 g/ha: 140 g ai/ha
In short: (§1)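 Injury was rated visually 14 d after treatment on a 0–100% scale against untreated controls. Test compounds, formulated with crop oil concentrate and surfactant and serially diluted down to 1/16× of the top rate, were applied by track sprayer at 187 L/ha onto first- to second-true-leaf seedlings.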

[2] = system: Key Broadleaf Weed and Crop Species; assay: Post-emergent Test II herbicidal activity (Table 5); type: in vivo; settings: post-emergence, 336 h, 14 days after application; for pest or weed control at 70 g/ha: application rate 70 g ai/ha; for pest or weed control at 140 g/ha: application rate 140 g ai/ha
In short: as §1

[3] = CYPES: yellow nutsedge (Cyperus esculentus), read-out: Visual Growth Reduction (%) 14 Days After Application, CYPES
[4] = DIGSA: crabgrass (Digitaria sanguinalis), read-out: Visual Growth Reduction (%) 14 Days After Application, DIGSA
[5] = ECHCG: barnyardgrass (Echinochloa crus-galli), read-out: Visual Growth Reduction (%) 14 Days After Application, ECHCG
[6] = ORYSA: rice (Oryza sativa), crop, read-out: Visual Growth Reduction (%) 14 Days After Application, ORYSA
[7] = SETFA: giant foxtail (Setaria faberi), read-out: Visual Growth Reduction (%) 14 Days After Application, SETFA
[8] = SORVU: grain sorghum (Sorghum vulgare), read-out: Visual Growth Reduction (%) 14 Days After Application, SORVU
[9] = TRZSS (wheat, Triticum aestivum), crop, read-out: Visual Growth Reduction (%) 14 Days After Application, TRZSS
[10] = ZEAMX: maize, corn (Zea mays), crop, read-out: Visual Growth Reduction (%) 14 Days After Application, ZEAMX
[11] = ABUTH: velvetleaf (Abutilon theophrasti), read-out: Visual Growth Reduction (%) 14 Days After Application, ABUTH
[12] = AMARE: redroot pigweed (Amaranthus retroflexus), read-out: Visual Growth Reduction (%) 14 Days After Application, AMARE
[13] = BRSNN: oilseed-rape, canola (Brassica napus), read-out: Visual Growth Reduction (%) 14 Days After Application, BRSNN
[14] = CHEAL: lambsquarters (Chenopodium album), read-out: Visual Growth Reduction (%) 14 Days After Application, CHEAL
[15] = EPHHL: wild poinsettia (Euphorbia heterophylla), read-out: Visual Growth Reduction (%) 14 Days After Application, EPHHL
[16] = HELAN: sunflower (Helianthus annuus), read-out: Visual Growth Reduction (%) 14 Days After Application, HELAN
[17] = VIOTR: wild pansy (Viola tricolor), read-out: Visual Growth Reduction (%) 14 Days After Application, VIOTR

COC(=O)c1nc(-c2ccc(F)c(F)c2F)c(F)c(N)c1Cl [Compound 186]
pest or weed control at 70 g/ha [1, 3]: 85 to 94%
pest or weed control at 140 g/ha [1, 3]: 85 to 94%
pest or weed control at 70 g/ha [1, 4]: 45 to 59%
pest or weed control at 140 g/ha [1, 4]: 60 to 74%
pest or weed control at 70 g/ha [1, 5]: 85 to 94%
pest or weed control at 140 g/ha [1, 5]: 95 to 100%
pest or weed control at 70 g/ha [1, 6]: 0 to 29%
pest or weed control at 140 g/ha [1, 6]: 30 to 44%
pest or weed control at 70 g/ha [1, 7]: 0 to 29%
pest or weed control at 140 g/ha [1, 7]: 60 to 74%
pest or weed control at 70 g/ha [1, 8]: 60 to 74%
pest or weed control at 140 g/ha [1, 8]: 75 to 84%
pest or weed control at 70 g/ha [1, 9]: 60 to 74%
pest or weed control at 140 g/ha [1, 9]: 60 to 74%
pest or weed control at 70 g/ha [1, 10]: 75 to 84%
pest or weed control at 140 g/ha [1, 10]: 85 to 94%
pest or weed control at 70 g/ha [2, 11]: 95 to 100%
pest or weed control at 140 g/ha [2, 11]: 95 to 100%
pest or weed control at 70 g/ha [2, 12]: 95 to 100%
pest or weed control at 140 g/ha [2, 12]: 95 to 100%
pest or weed control at 70 g/ha [2, 13]: 85 to 94%
pest or weed control at 140 g/ha [2, 13]: 95 to 100%
pest or weed control at 70 g/ha [2, 14]: 95 to 100%
pest or weed control at 140 g/ha [2, 14]: 95 to 100%
pest or weed control at 70 g/ha [2, 15]: 95 to 100%
pest or weed control at 140 g/ha [2, 15]: 95 to 100%
pest or weed control at 70 g/ha [2, 16]: 85 to 94%
pest or weed control at 140 g/ha [2, 16]: 95 to 100%
pest or weed control at 70 g/ha [2, 17]: 85 to 94%
pest or weed control at 140 g/ha [2, 17]: 95 to 100%
melting point: 147 to 148 °C

Source: patent US9113629B2, “4-amino-6-(4-substituted-phenyl)-picolinates and 6-amino-2-(4-substituted-phenyl)-pyrimidine-4-carboxylates and their use as herbicides” (DOW AGROSCIENCES LLC, priority 2013, dated 2015)
